pIC50: −log10 of the molar value. The source made the active and inactive calls. The rule behind the calls is not given here.
Experiments:
[1] = molecular target: T1, Proteasome Macropain subunit MB1 (Homo sapiens, UniProt P28074); assay: Inhibition of chymotrypsin-like activity of human LCL-derived 20S proteasome using Suc-LLVY-AMC as substrate preincubated with enzyme followed by substrate addition measured after 30 mins by fluorescence assay
T1 sequence (P28074 whole entry): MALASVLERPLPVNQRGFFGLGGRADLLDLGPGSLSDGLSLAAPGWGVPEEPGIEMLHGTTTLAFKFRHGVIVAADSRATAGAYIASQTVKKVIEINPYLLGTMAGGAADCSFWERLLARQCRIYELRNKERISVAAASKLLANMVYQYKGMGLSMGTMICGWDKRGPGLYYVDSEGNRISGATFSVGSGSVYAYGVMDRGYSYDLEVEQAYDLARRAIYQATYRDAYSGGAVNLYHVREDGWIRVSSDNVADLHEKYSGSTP

Homo sapiens = species on record: Homo sapiens; assay: Inhibition of 20S proteasome activity in human MDA-MB-231 cells assessed as accumulation of ubiquitinated proteins at 50 nM by Western blot method; assay type: cell-based
HL-60 = assay: Antiproliferative activity against human HL60 cells after 72 hrs by SRB assay; assay type: functional, cell-based; settings: HL-60, 72 h
A2780 = assay: Antiproliferative activity against human A2780 cells after 72 hrs by SRB assay; assay type: functional, cell-based; settings: A2780, 72 h
[2] = molecular target: T2, Proteasome Macropain subunit MB1 (Homo sapiens) (UniProt P28074); assay: Inhibition of chymotrypsin-like activity of human 20S proteasome at 100 nM using Suc-Leu-Leu-Val-Tyr-AMC as substrate by fluorescence assay relative to control
T2 sequence (whole entry): T1 sequence (P28074 whole entry)

MDA-MB-231 = assay: Antiproliferative activity against human MDA-MB-231 cells after 72 hrs by SRB assay; assay type: functional, cell-based; settings: MDA-MB-231, 72 h
A549 = assay: Antiproliferative activity against human A549 cells after 72 hrs by SRB assay; assay type: functional, cell-based; settings: A549, 72 h
RPMI-8226 = assay: Antiproliferative activity against human RPMI8226 cells after 72 hrs by SRB assay; assay type: functional, cell-based; settings: RPMI-8226, 72 h
[3] = molecular target: T1, Proteasome Macropain subunit MB1; assay: Inhibition of chymotrypsin-like activity of human 20S proteasome using Suc-Leu-Leu-Val-Tyr-AMC as substrate by fluorescence assay
[4] = molecular target: T2, Proteasome Macropain subunit MB1 (Homo sapiens); assay: Inhibition of chymotrypsin-like activity of human 20S proteasome at 1 uM using Suc-Leu-Leu-Val-Tyr-AMC as substrate by fluorescence assay relative to control
[5] = Metabolic stability in Sprague-Dawley rat liver microsomes assessed as compound remaining at 20 uM preincubated for 5 mins followed by NADPH addition measured after 20 mins by HPLC analysis; assay type: ADME, microsome; settings: read-out: Stability
[6] = Drug metabolism in human plasma administered as iv bolus dose after 30 mins; assay type: ADME, organism-based; settings: read-out: Drug metabolism

SMILES | inhibition [2] [%] | inhibition [4] [%] | further results
O=CN(O)CCC[C@@H](NC(=O)[C@H](CO)NC(=O)[C@@H]1COC(c2ccccc2O)=N1)C(=O)NCCC(=O)N[C@@H]1CCCN(O)C1=O | – | – | pIC50 [1]: 4.40
CC(C)C[C@H](NC(=O)CNC1=CC(=O)c2ccccc2C1=O)B(O)O | 84.9 | > 50 | inhibition (Homo sapiens): Active; pIC50 (HL-60): 5.45; pIC50 (A2780): 5.43; pIC50 (MDA-MB-231): 5.90; pIC50 (A549): 5.54; pIC50 (RPMI-8226): 5.46; pIC50 [3]: 7.64
C[C@@H](CO)NC(=O)c1ccccc1O | – | – | pIC50 [1]: 4.61
CC1=C(N[C@@H](C)C(=O)N[C@@H](CC(C)C)B(O)O)C(=O)c2ccccc2C1=O | 52.3 | > 50 | –
CC(C)C[C@H](NC(=O)[C@@H](NC1=C(Cl)C(=O)c2ccccc2C1=O)C(C)C)B(O)O | 47.4 | > 50 | –
CC(C)C[C@H](NC(=O)[C@H](CC(C)C)NC1=CC(=O)c2ccccc2C1=O)B(O)O | 79.8 | > 50 | pIC50 [3]: 7.35
CC(C)C[C@H](NC(=O)[C@H](C)NC1=C(Cl)C(=O)c2ccccc2C1=O)B(O)O | 64.8 | > 50 | –
CC(C)C[C@H](NC(=O)[C@H](C)NC1=CC(=O)c2ccccc2C1=O)B(O)O | 67.5 | > 50 | –
CC1=C(N[C@@H](Cc2ccccc2)C(=O)N[C@@H](CC(C)C)B(O)O)C(=O)c2ccccc2C1=O | 84.7 | > 50 | pIC50 [3]: 7.59
CC1=C(N[C@H](C(=O)N[C@@H](CC(C)C)B(O)O)C(C)C)C(=O)c2ccccc2C1=O | 42.3 | > 50 | –
CC(C)C[C@H](NC(=O)[C@H](Cc1ccccc1)NC1=C(Cl)C(=O)c2ccccc2C1=O)B(O)O | 86.7 | > 50 | pIC50 [3]: 7.61
CC(C)C[C@H](NC(=O)[C@H](Cc1ccccc1)NC1=CC(=O)c2ccccc2C1=O)B(O)O | 90.3 | > 50 | inhibition (Homo sapiens): Active; remaining at 20 min, 20 µM [5]: 60%; pIC50 (HL-60): 5.96; pIC50 (A2780): 6.33; pIC50 (MDA-MB-231): 7.42; pIC50 (A549): 6.17; pIC50 (RPMI-8226): 5.96; pIC50 [3]: 7.94
CC1=C(N[C@@H](CC(C)C)C(=O)N[C@@H](CC(C)C)B(O)O)C(=O)c2ccccc2C1=O | 31.4 | > 50 | –
CC(C)C[C@H](NC(=O)[C@H](CC(C)C)NC1=C(Cl)C(=O)c2ccccc2C1=O)B(O)O | 43.5 | > 50 | –
CC(C)C[C@H](NC(=O)[C@@H](NC1=CC(=O)c2ccccc2C1=O)C(C)C)B(O)O | 69.2 | > 50 | –
CC(C)C[C@H](NC(=O)CNC1=C(Cl)C(=O)c2ccccc2C1=O)B(O)O | 67.7 | > 50 | –
CC(C)C[C@H](NC(=O)CNC(=O)c1cc(Cl)ccc1Cl)B(O)O [IXAZOMIB] | – | – | metabolised at 0.5 h [6]: 90%
CC1=C(NCC(=O)N[C@@H](CC(C)C)B(O)O)C(=O)c2ccccc2C1=O | 65.9 | > 50 | –
CC(C)C[C@H](NC(=O)[C@H](Cc1ccccc1)NC(=O)c1cnccn1)B(O)O [BORTEZOMIB] | – | – | remaining at 20 min, 20 µM [5]: 44%; pIC50 (HL-60): 8.49; pIC50 (A2780): 7.54; pIC50 (MDA-MB-231): 8.19; pIC50 (A549): 8.60; pIC50 (RPMI-8226): 8.17

— ChEMBL document CHEMBL4004842, “Design, synthesis and biological evaluation of novel non-peptide boronic acid derivatives as proteasome inhibitors” (Eur J Med Chem, 2017)
